Assay results from patent US6355799B1, “Substituted benzene compounds, process for their preparation, and herbicidal and defoliant compositions containing them” (ISK Americas Incorporated, priority 1997, dated 2002).

How the values were obtained:
Format in all cases: in vivo
[1] = system: redroot pigweed (Amaranthus retroflexus, AMARE); assay: Pre-emerge test, greenhouse herbicide activity screening; settings: pre-emerge, 14 days after application, scale 0-100
How it was run: (§1)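 Rating: 0–100 visual injury, 14 DAA. Application: acetone, 187 l/ha, 15–1000 g ai/ha, flat-fan track sprayer with nozzle 40–45 cm above soil or canopy. Post-emerge runs used 0.25% v/v surfactant on 2–3 leaf plants.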

[2] = system: barnyardgrass (Echinochloa crus-galli, ECHCG); assay: as above; settings: pre-emerge, 14 days after application, scale 0-100
How it was run: (§2)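 Fourteen days after spraying, crop and weed injury was graded visually from 0, no effect, to 100, every plant dead. Test substances were dissolved in acetone and applied at 15–1000 g ai/ha with a flat-fan nozzle. Application was either pre-emergence, one day after sowing, or post-emergence at the 2–3 leaf stage.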

[3] = system: green foxtail (Setaria viridis, SETVI); assay: as above; settings: pre-emerge, 14 days after application, scale 0-100
How it was run: as §2

[4] = system: ivyleaf morningglory (Ipomoea hederacea, IPOHE); assay: as above; settings: pre-emerge, 14 days after application, scale 0-100
How it was run: as §2

[5] = system: johnsongrass (Sorghum halepense, SORHA); assay: as above; settings: pre-emerge, 14 days after application, scale 0-100
How it was run: as §2

[6] = system: lambsquarters (Chenopodium album, CHEAL); assay: as above; settings: pre-emerge, 14 days after application, scale 0-100
How it was run: as §2

[7] = system: large crabgrass (Digitaria sanguinalis, DIGSA); assay: as above; settings: pre-emerge, 14 days after application, scale 0-100
How it was run: as §2

[8] = system: sicklepod (Cassia obtusifolia, CASOB); assay: as above; settings: pre-emerge, 14 days after application, scale 0-100
How it was run: as §2

[9] = system: velvetleaf (Abutilon theophrasti, ABUTH); assay: as above; settings: pre-emerge, 14 days after application, scale 0-100
How it was run: as §2

[10] = system: field corn (Zea mays L., var. Dekalb 535, CORN); assay: Pre-emerge test, crop safety; settings: pre-emerge, 14 days after application, scale 0-100
How it was run: as §1

[11] = system: upland rice (Oryza sp., var. Tebonnet, RICE); assay: Pre-emerge test, crop safety; settings: pre-emerge, 14 days after application, scale 0-100
How it was run: as §1

[12] = system: barnyardgrass (Echinochloa crus-galli, ECHCG); assay: Post-emerge test, greenhouse herbicide activity screening; settings: post-emerge, 14 days after application, rating scale 0-100
How it was run: as §2

[13] = system: green foxtail (Setaria viridis, SETVI); assay: as above; settings: post-emerge, 14 days after application, rating scale 0-100
How it was run: as §2

[14] = system: ivyleaf morningglory (Ipomoea hederacea, IPOHE); assay: as above; settings: post-emerge, 14 days after application, rating scale 0-100
How it was run: as §2

[15] = system: johnsongrass (Sorghum halepense, SORHA); assay: as above; settings: post-emerge, 63 g ai/ha, 14 days after application, rating scale 0-100
How it was run: as §2

[16] = system: lambsquarters (Chenopodium album, CHEAL); assay: as above; settings: post-emerge, 14 days after application, rating scale 0-100
How it was run: as §2

[17] = system: large crabgrass (Digitaria sanguinalis, DIGSA); assay: as above; settings: post-emerge, 14 days after application, rating scale 0-100
How it was run: as §2

[18] = system: redroot pigweed (Amaranthus retroflexus, AMARE); assay: as above; settings: post-emerge, 14 days after application, rating scale 0-100
How it was run: as §2

[19] = system: sicklepod (Cassia obtusifolia, CASOB); assay: as above; settings: post-emerge, 14 days after application, rating scale 0-100
How it was run: as §2

[20] = system: velvetleaf (Abutilon theophrasti, ABUTH); assay: as above; settings: post-emerge, 14 days after application, rating scale 0-100
How it was run: as §2

[21] = system: field corn (Zea mays L., var. Dekalb 535, CORN); assay: Post-emerge test, crop safety; settings: post-emerge, 14 days after application, rating scale 0-100
How it was run: as §2

[22] = system: upland rice (Oryza sp., var. Tebonnet, RICE); assay: Post-emerge test, crop safety; settings: post-emerge, 14 days after application, rating scale 0-100
How it was run: as §2

COc1c(C#N)cc(F)c(-n2c(=O)cc(C(F)(F)F)n(C)c2=O)c1NC(=O)C=Cc1ccccc1 [2-179]
phytotoxicity rating AMARE ([1]; 63 g ai/ha): 100 | phytotoxicity rating AMARE ([1]; 250 g ai/ha): 100 | phytotoxicity rating ECHCG ([2]; 63 g ai/ha): 20 | phytotoxicity rating ECHCG ([2]; 250 g ai/ha): 85 | phytotoxicity rating SETVI ([3]; 63 g ai/ha): 50 | phytotoxicity rating SETVI ([3]; 250 g ai/ha): 90 | phytotoxicity rating IPOHE ([4]; 63 g ai/ha): 60 | phytotoxicity rating IPOHE ([4]; 250 g ai/ha): 70 | phytotoxicity rating SORHA ([5]; 63 g ai/ha): 30 | phytotoxicity rating SORHA ([5]; 250 g ai/ha): 95 | phytotoxicity rating CHEAL ([6]; 63 g ai/ha): 100 | phytotoxicity rating CHEAL ([6]; 250 g ai/ha): 100 | phytotoxicity rating DIGSA ([7]; 63 g ai/ha): 20 | phytotoxicity rating DIGSA ([7]; 250 g ai/ha): 95 | phytotoxicity rating CASOB ([8]; 63 g ai/ha): 30 | phytotoxicity rating CASOB ([8]; 250 g ai/ha): 100 | phytotoxicity rating ABUTH ([9]; 63 g ai/ha): 100 | phytotoxicity rating ABUTH ([9]; 250 g ai/ha): 100 | phytotoxicity rating CORN (crop damage) ([10]; 63 g ai/ha): 0 | phytotoxicity rating CORN (crop damage) ([10]; 250 g ai/ha): 10 | phytotoxicity rating RICE (crop damage) ([11]; 63 g ai/ha): 20 | phytotoxicity rating RICE (crop damage) ([11]; 250 g ai/ha): 60 | ECHCG phytotoxicity rating ([12]; 63 g ai/ha): 70 | ECHCG phytotoxicity rating ([12]; 250 g ai/ha): 50 | SETVI phytotoxicity rating ([13]; 63 g ai/ha): 30 | SETVI phytotoxicity rating ([13]; 250 g ai/ha): 55 | IPOHE phytotoxicity rating ([14]; 63 g ai/ha): 80 | IPOHE phytotoxicity rating ([14]; 250 g ai/ha): 100 | SORHA phytotoxicity rating [15]: 10 | CHEAL phytotoxicity rating ([16]; 63 g ai/ha): 80 | CHEAL phytotoxicity rating ([16]; 250 g ai/ha): 100 | DIGSA phytotoxicity rating ([17]; 63 g ai/ha): 0 | DIGSA phytotoxicity rating ([17]; 250 g ai/ha): 50 | AMARE phytotoxicity rating ([18]; 63 g ai/ha): 100 | AMARE phytotoxicity rating ([18]; 250 g ai/ha): 100 | CASOB phytotoxicity rating ([19]; 63 g ai/ha): 80 | CASOB phytotoxicity rating ([19]; 250 g ai/ha): 100 | ABUTH phytotoxicity rating ([20]; 63 g ai/ha): 100 | ABUTH phytotoxicity rating ([20]; 250 g ai/ha): 100 | CORN phytotoxicity rating (crop damage) ([21]; 63 g ai/ha): 15 | CORN phytotoxicity rating (crop damage) ([21]; 250 g ai/ha): 15 | RICE phytotoxicity rating (crop damage) ([22]; 63 g ai/ha): 30 | RICE phytotoxicity rating (crop damage) ([22]; 250 g ai/ha): 60
